Measured values reported in ChEMBL document CHEMBL2146406, “DNA-binding study of anthraquinone derivatives using chemometrics methods” (Eur J Med Chem, 2011).
Active and inactive are the calls of the source. No cut-off for these calls is given here.

Assays:
Format in all cases: nucleic-acid assay
Conditions in all cases: Bos taurus
[1] = tested on: Nucleic Acid; assay: Binding affinity to calf thymus DNA at DNA/compound ratio 0.1 to 2 at pH 7 by measuring DNA viscosity
[2] = tested on: Nucleic Acid; assay: Binding affinity to calf thymus DNA assessed as partial intercalation
[3] = tested on: Nucleic Acid; assay: Binding affinity to calf thymus DNA at 50 uM by circular dichroism spectra
[4] = tested on: Nucleic Acid; assay: Binding affinity to calf thymus DNA assessed as hydrogen bonding
[5] = tested on: Nucleic Acid; assay: Binding affinity to calf thymus DNA in Brittone-Robinson buffer at 50 uM at pH 3 by UV-vis spectroscopy
[6] = tested on: Nucleic Acid; assay: Binding affinity to calf thymus DNA in Brittone-Robinson buffer at 50 uM by UV-vis spectroscopy in presence of native DNA
[7] = tested on: Nucleic Acid; assay: Binding affinity to calf thymus DNA in Brittone-Robinson buffer at 50 uM by UV-vis spectroscopy in presence of denatured DNA
[8] = tested on: Nucleic Acid; assay: Ratio of danthron Kb to quinizarin Kb for calf thymus DNA
[9] = tested on: Nucleic Acid; assay: Binding affinity to calf thymus DNA in Brittone-Robinson buffer at 50 uM at pH 7 by UV-vis spectroscopy
[10] = tested on: Nucleic Acid; assay: Binding affinity to calf thymus DNA in Brittone-Robinson buffer at 50 uM at pH 7 in presence of NaCl by UV-vis spectroscopy

Compound	Activity [1]	Kb [2]	Activity [3]	Kb [4] [×10⁴ /M]	Activity [5]	Activity [6]	Activity [7]	Ratio [8]	Activity [9]	Activity [10]
O=C1c2ccccc2C(=O)c2c(O)ccc(O)c21	Active	3.2 ×10⁷ /M	Active	1.66	inactive	Active	Active	5	Active	Active
O=C1c2cccc(O)c2C(=O)c2c(O)cccc21	Active	7.2 ×10⁶ /M	Active	3.6	inactive	Active	Active	–	Active	Active
